Data published in patent publication US4824834A, “Pyrazolotriazine compounds” (Otsuka Pharmaceutical Company, Limited, priority 1986, dated 1989).

Experiments:
uric acid in serum = experiment: Lowering effect of test compound on the level of uric acid in serum (in vivo, oral administration); set-up: species or system mouse (normal male ICR mice); conditions: Mus musculus, 4 hours after administration, male ICR mice, suspended in 0.5% CMC-Na, read-out: in vivo Lowering rate (%) of uric acid in serum (in 4 hours)
Protocol: Experiment 2 (In Vivo: Oral Administration)
(1) Animals, Method of Administration and Sampling of Serum
Normal male ICR mice (weighting about 30 g), were provided normal diet and tap water ad libitum. A test compound suspended in 0.5% CMC-Na was administered orally to the mice (each group: 6 mice) in a dose of 5 mg/kg.
(2) Measurement of Amount of Uric Acid in Serum
To the serum (200 μl) was added 10% perchloric acid (100 μl), and the mixture was centrifuged. To the supernatant fluid (100 μl) was added 0.2M Na2 HPO4 (200 μl), and the mixture (20 μl) was analyzed by HPLC to measure the amount of uric acid. The HPLC was carried out under the following conditions.
Column: Cosmosil packed column (.phi. 4.6 mm×150 mm, 5C18 -300)
(§1) Eluting solution: 10 mM phosphate buffer (pH 6.0)
(§2) Retention time: 2.4 minutes (uric acid)
(3) Lowering Effect of Test Compound on the Level of Uric Acid in Serum
The lowering rate of uric acid in serum was calculated by the following equation. [formula]

Xanthine oxidase = biological target: T1, Xanthine oxidase (Mus musculus, UniProt Q00519); experiment: Xanthine oxidase inhibition (in vitro), mouse small intestine xanthine oxidase solution, HPLC of uric acid; format: biochemical, mouse (ICR strain mice; conditions: xanthine substrate, incubated at 37° C. for 5 minutes; HPLC UV 292 nm
T1 construct: The small intestine was homogenized in 4-fold volume of cooled phosphate buffered saline solution (PBS) and then centrifuged; from tissue; host or cells: small intestine of ICR strain mice; dialysed supernatant of a 105,000 g centrifugation
T1 sequence (Q00519 whole entry): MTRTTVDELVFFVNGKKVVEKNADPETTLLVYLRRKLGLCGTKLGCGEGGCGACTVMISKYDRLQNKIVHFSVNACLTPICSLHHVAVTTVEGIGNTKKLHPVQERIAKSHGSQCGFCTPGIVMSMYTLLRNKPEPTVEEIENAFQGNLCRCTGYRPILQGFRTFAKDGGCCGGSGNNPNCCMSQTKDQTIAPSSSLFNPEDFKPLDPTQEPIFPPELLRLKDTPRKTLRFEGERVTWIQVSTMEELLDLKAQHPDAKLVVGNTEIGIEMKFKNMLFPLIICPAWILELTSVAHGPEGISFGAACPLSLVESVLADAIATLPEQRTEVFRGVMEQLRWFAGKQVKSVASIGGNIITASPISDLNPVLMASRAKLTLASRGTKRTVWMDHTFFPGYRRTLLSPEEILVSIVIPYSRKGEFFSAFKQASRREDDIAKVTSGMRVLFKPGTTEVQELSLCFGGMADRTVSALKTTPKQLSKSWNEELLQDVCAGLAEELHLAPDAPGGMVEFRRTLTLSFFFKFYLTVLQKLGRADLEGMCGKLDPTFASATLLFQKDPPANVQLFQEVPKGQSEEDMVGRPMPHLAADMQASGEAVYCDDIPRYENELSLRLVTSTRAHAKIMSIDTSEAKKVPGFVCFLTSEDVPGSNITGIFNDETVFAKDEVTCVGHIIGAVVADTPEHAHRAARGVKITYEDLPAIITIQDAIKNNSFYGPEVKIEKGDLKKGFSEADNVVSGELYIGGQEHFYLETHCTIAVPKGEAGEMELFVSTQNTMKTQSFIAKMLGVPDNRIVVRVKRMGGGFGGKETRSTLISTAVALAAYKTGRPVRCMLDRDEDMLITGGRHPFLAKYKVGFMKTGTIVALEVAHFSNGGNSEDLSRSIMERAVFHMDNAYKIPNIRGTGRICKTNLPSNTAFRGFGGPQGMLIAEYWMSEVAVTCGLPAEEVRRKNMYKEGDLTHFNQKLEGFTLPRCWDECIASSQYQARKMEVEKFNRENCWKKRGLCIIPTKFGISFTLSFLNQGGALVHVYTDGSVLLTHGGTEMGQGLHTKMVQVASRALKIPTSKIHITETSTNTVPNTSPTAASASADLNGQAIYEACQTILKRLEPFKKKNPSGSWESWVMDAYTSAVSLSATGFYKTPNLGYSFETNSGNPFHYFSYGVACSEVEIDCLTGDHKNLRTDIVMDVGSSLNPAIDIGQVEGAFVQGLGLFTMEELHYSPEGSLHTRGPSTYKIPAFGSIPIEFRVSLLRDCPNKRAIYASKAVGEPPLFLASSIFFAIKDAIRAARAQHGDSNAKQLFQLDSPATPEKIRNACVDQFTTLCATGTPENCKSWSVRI
Protocol: (1) Preparation of Xanthine Oxidase Solution
ICR strain mice were decapitated and the small intestine of each mouse was rapidly perfused with cooled physiological saline solution and removed. The small intestine was homogenized in 4-fold volume of cooled phosphate buffered saline solution (PBS) and then centrifuged at 105,000 g for 60 minutes. The supernatant fluid was dialyzed overnight against PBS. The dialyzed solution thus prepared was stored at -20° C. until used.
(2) Preparation of the Solution Containing the Present Compound
The compound of this invention was dissolved in DMSO (200 μl) and 2N NaOH (100 μl), and then PBS was added to prepare a solution (25 ml) containing 10^-3 M of the compound of this invention. This solution was diluted with PBS to prepare solutions containing the compound in the concentration of 10^-4, 10^-5, 10^-6, 10^-7, 10^-8, 10^-9, 10^-10, and 10^-11 M, respectively.
(3) Method for the Measurement
The assay mixture, consisted of the composition mentioned below, was incubated at 37° C. for 5 minutes. The reaction was stopped by heating in boiling water for one minute. Twenty microliters of the supernatant was analyzed by high performance liquid chromatography (HPLC) under the conditions mentioned below.
Xanthine oxidase solution (diluted in 4-folds with PBS): 200 μl
Solution containing the present compound: 200 μl
Column: osmosil packed column (.phi. 4. mm×150 mm, 5C18×300)
as §1, §2
(4) Percent Inhibition of the Compound Against Xanthine Oxidase
The percent inhibition was calculated by the following equation. [formula]
As to each of the solutions containing the present compound as prepared in the above (2), the percent inhibition was calculted, and IC50 values were obtained from a plot of the percent inhibition against the log of the concentration of the compound of this invention.

Compound	IC50 (Xanthine oxidase) [nM]	inhibition in vivo at 5 mg/kg (uric acid in serum) [%]
Oc1ncnc2[nH]ncc12 [Allopurinol, 4-hydroxypyrazolo[3,4-d]pyrimidine, reference compound]	–	34
CCSc1ccc(-c2cnn3c(O)ncnc23)cc1 [Example 17, 8-(4-Ethylthiophenyl)-4-hydroxypyrazolo[1,5-a]-1,3,5-triazine]	30	–
Oc1ncnc2c(-c3ccc(Sc4ccccc4)cc3)cnn12 [Example 19, 4-Hydroxy-8-(4-phenylthiophenyl)pyrazolo[1,5-a]-1,3,5-triazine]	160	–
Cc1ccc(Sc2ccc(-c3cnn4c(O)ncnc34)cc2)cc1 [Example 21, 4-Hydroxy-8-[4-(4-methylphenylthio)phenyl]pyrazolo[1,5-a]-1,3,5-triazine]	310	–
Cc1cc(-c2cnn3c(O)ncnc23)ccc1Sc1ccccc1 [Example 33, 4-Hydroxy-8-(3-methyl-4-phenylthiophenyl)pyrazolo[1,5-a]-1,3,5-triazine]	18	62
CSc1ccc(-c2cnn3c(O)ncnc23)cc1Cl [Example 43, 8-(3-Chloro-4-methylthiophenyl)-4-hydroxypyrazolo[1,5-a]-1,3,5-triazine]	10	60.6
Oc1ncnc2c(-c3cc(Cl)c(Cl)c(Cl)c3)cnn12 [Example 53, 4-Hydroxy-8-(3,4,5-trichlorophenyl)pyrazolo[1,5-a]-1,3,5-triazine]	15	–
CSc1cc(F)c(-c2cnn3c(O)ncnc23)cc1C [Example 54, 8-(2-Fluoro-5-methyl-4-methylthiophenyl)-4hydroxypyrazolo[1,5-a]-1,3,5-triazine]	550	65.2
O=C(c1ccccc1)c1ccc(-c2cnn3c(O)ncnc23)cc1 [Example 70, 8-(4-Benzoylphenyl)-4-hydroxypyrazolo[1,5-a]-1,3,5-triazine]	5.2	–
Cc1cc(-c2cnn3c(O)ncnc23)ccc1[N+](=O)[O-] [Example 73, 4-Hydroxy-8-(3-methyl-4-nitrophenyl)pyrazolo[1,5-a]-1,3,5-triazine]	40	–
COc1cc(-c2cnn3c(O)ncnc23)ccc1[N+](=O)[O-] [Example 74, 4-Hydroxy-8-(3-methoxy-4-nitrophenyl)pyrazolo[1,5-a]-1,3,5-triazine]	50	–
Cc1ccc(NS(=O)(=O)c2ccc(-c3cnn4c(O)ncnc34)cc2)cc1 [Example 95, 4-Hydroxy-8-[4-(4-methylphenylaminosulfonyl)phenyl]pyrazolo[1,5-a]-1,3,5-triazine]	3.6	–
CCc1cccc(NS(=O)(=O)c2ccc(-c3cnn4c(O)ncnc34)cc2)c1 [Example 97, 8-[4-(3-Ethylphenylaminosulfonyl)phenyl]-4-hydroxypyrazolo[1,5-a]-1,3,5-triazine]	0.45	–
CC(C)c1ccc(NS(=O)(=O)c2ccc(-c3cnn4c(O)ncnc34)cc2)cc1 [Example 99, 4-Hydroxy-8-[4-(4-isopropylphenylaminosulfonyl)phenyl]pyrazolo[1,5-a]-1,3,5-triazine]	0.14	–
CC(C)(C)c1ccc(NS(=O)(=O)c2ccc(-c3cnn4c(O)ncnc34)cc2)cc1 [Example 100, 8-[4-(4-t-Butylphenylaminosulfonyl)phenyl]-4hydroxypyrazolo[1,5-a]-1,3,5-triazine]	0.75	–
CC(O)c1ccc(NS(=O)(=O)c2ccc(-c3cnn4c(O)ncnc34)cc2)cc1 (stereo not drawn) [Example 101, 4-Hydroxy-8-[4-(4-α-hydroxyethylphenylaminosulfonyl)phenyl]pyrazolo[1,5-a]-1,3,5-triazine]	54	–
COC(=O)c1ccc(NS(=O)(=O)c2ccc(-c3cnn4c(O)ncnc34)cc2)cc1O [Example 112]	6.5	–
COC(=O)c1ccc(NS(=O)(=O)c2ccc(-c3cnn4c(O)ncnc34)cc2)cc1OC [Example 113, 4-Hydroxy-8-[4-(3-methoxy-4-methoxycarbonylphenylaminosulfonyl)phenyl]pyrazolo[1,5-a]-1,3,5-triazine]	34	–
CN(C)S(=O)(=O)c1ccc(-c2cnn3c(O)ncnc23)cc1Cl [Example 136, 8-(3-Chloro-4-dimethylaminosulfonylphenyl)-4-hydroxypyrazolo[1,5-a]-1,3,5-triazine]	32	–
Oc1ncnc2c(-c3ccc(Br)c(Cl)c3)cnn12 [Example 143, 8-(4-Bromo-3-chlorophenyl)-4-hydroxypyrazolo[1,5-a]-1,3,5-triazine]	36	–
CSc1ccc(-c2cnn3c(O)ncnc23)cc1Br [Example 146, 8-(3-Bromo-4-methylthiophenyl)-4-hydroxypyrazolo[1,5-a]-1,3,5-triazine]	2.7	47
Oc1ncnc2c(-c3ccc(Sc4ccccc4)c(Cl)c3)cnn12 [Example 167, 8-(3-Chloro-4-phenylthiophenyl)-4-hydroxypyrazolo[1,5-a]-1,3,5-triazine]	5	–
[O-][S+](c1ccccc1)c1ccc(-c2cnn3c(O)ncnc23)cc1 (stereo not shown) [Example 170, 4-Hydroxy-8-(4-phenylsulfinylphenyl)pyrazolo[1,5-a]-1,3,5-triazine]	8	57.2

Continued by falling IC50 (Xanthine oxidase), values first:

IC50 (Xanthine oxidase) [nM]	Compound	inhibition in vivo at 5 mg/kg (uric acid in serum) [%]
76	O=S(=O)(NCc1cccs1)c1ccc(-c2cnn3c(O)ncnc23)cc1 [Example 134, 4-Hydroxy-8-[4-(2-thienylmethylaminosulfonyl)phenyl]pyrazolo[1,5-a]-1,3,5-triazine]	–
71	CSc1ccc(-c2cnn3c(O)ncnc23)cc1C [Example 30, 4-Hydroxy-8-(3-methyl-4-methylthiophenyl)pyrazolo[1,5-a]-1,3,5-triazine]	47
64	O=S(=O)(Nc1cccc(O)c1)c1ccc(-c2cnn3c(O)ncnc23)cc1 [Example 107, 4-Hydroxy-8-[4-(3-hydroxyphenylaminosulfonyl)phenyl]pyrazolo[1,5-a]-1,3,5-triazine]	–
53	Oc1ncnc2c(-c3cc(Cl)c(OCc4ccccc4)c(Cl)c3)cnn12 [Example 52, 8-(4-Benzyloxy-3,5-dichlorophenyl)-4-hydroxypyrazolo[1,5-a]-1,3,5-triazine]	–
52	Cc1cc(-c2cnn3c(O)ncnc23)ccc1Br [Example 142, 8-(4-Bromo-3-methylphenyl)-4-hydroxypyrazolo[1,5-a]-1,3,5-triazine]	–
45	CCc1cc(-c2cnn3c(O)ncnc23)ccc1SC [Example 39, 8-(3-Ethyl-4-methylthiophenyl)-4-hydroxypyrazolo[1,5-a]-1,3,5-triazine]	–
39	Cc1cc(-c2cnn3c(O)ncnc23)ccc1S(=O)(=O)N(C)C [Example 138, 8-(4-Dimethylaminosulfonyl-3-methylphenyl)-4hydroxypyrazolo[1,5-a]-1,3,5-triazine]	–
24	CSc1ccc(-c2cnn3c(O)ncnc23)cc1SC [Example 41, 8-[(3,4-Bismethylthio)phenyl]-4-hydroxypyrazolo[1,5-a]-1,3,5-triazine]	60.1
10	CCSc1ccc(-c2cnn3c(O)ncnc23)cc1C [Example 31, 8-(4-Ethylthio-3-methylphenyl)-4-hydroxypyrazolo[1,5-a]-1,3,5-triazine]	63.5
3.6	O=S(=O)(Nc1ccc(Cl)cc1)c1ccc(-c2cnn3c(O)ncnc23)cc1 [Example 109, 8-[4-(4-Chlorophenylaminosulfonyl)phenyl]-4hydroxypyrazolo[1,5-a]-1,3,5-triazine]	–
2.2	COC(=O)c1ccc(NS(=O)(=O)c2ccc(-c3cnn4c(O)ncnc34)cc2)cc1 [Example 105, 4-Hydroxy-8-[4-(4-methoxycarbonylphenylaminosulfonyl)phenyl]pyrazolo[1,5-a]-1,3,5-triazine]	–
0.1	CCc1ccc(NS(=O)(=O)c2ccc(-c3cnn4c(O)ncnc34)cc2)cc1 [Example 96, 8-[4-(4-Ethylphenylaminosulfonyl)phenyl]-4-hydroxypyrazolo[1,5-a]-1,3,5-triazine]	–
